Reference: patent US7547752B2, “Scalp treatment” (Unilever Home & Personal Care USA division of Conopco, Inc., priority 2002, dated 2009)

Tested on: scalp itch in panellists with self-perceived dandruff
Assay: Clinical anti-itch study: CLA lotion or lotion base applied before AD or NAD shampoo wash, investigator-scored itch degree
Assay type: in vivo, human
Conditions: lotion applied one hour before hair wash, shampoo 3 times a week, weekly assessment, FIG. 1
Text: The effect of conjugated linoleic acid, used in conjunction with anti-dandruff (AD) and non anti-dandruff (NAD) shampoo, was clinically assessed using the following protocol.
The conjugated linoleic acid is used as a lotion (composition B). The lotion base comprises Tween™ 20, Carbopol™ 980, Sodium Hydroxide, Natrosol™ 250HHR, EDTA-2Na, glydant plus and water (composition A). The use of the lotion is followed by a shampoo wash with an NAD shampoo (composition C) or an AD shampoo (composition D).
A randomised monadic double blind study design was used based on a total of 240 screened panellists, male and female, with self-perceived dandruff. All 240 panellists used a placebo shampoo (composition C) in their normal hair wash routine for 4 successive weeks.
The panellists were divided into four groups (total number of panellists=240):
Group 1: 60 panellists. All panellists wash their hair with NAD shampoo at home 3 times a week and apply CLA lotion one hour prior to washing their hair.
Group 2: 60 panellists. All panellists wash their hair with NAD shampoo at home 3 times a week and apply lotion base (composition A) one hour prior to washing their hair.
Group 3: 60 panellists. All panellists wash their hair with AD shampoo at home 3 times a week and apply CLA lotion one hour prior to washing their hair.
Group 4: 60 panellists. […]

Q: How did the “degree of itch of the scalp (itch degree, standard scale 0-4)” value turn out when Conjugated linoleic acid [CLA] was run?
A: can increase the degree of scalp itch
